Assay type in all cases: cell-based
Holding throughout (details): banded into grades

One experiment has as its system Aspergillus terreus AT49. The experiment is described as follows: Measurement of Minimum Inhibitory Concentrations (MICs), A. terreus 49. Here is the method: (§1) Between 1 and 5 mgs of compound were accurately weighed out into a sterile Eppendorf tube. The compound was dissolved in DMSO to give a solution containing 5 mg/mL. Tubes were stored at −20° C. until required. On the day of testing thawed solutions were vortex mixed to ensure homogeneity. 30 μL of solution was removed and added to 570 μL of sterile water in a separate sterile Eppendorf. The thoroughly mixed solution was used to prepare a series of doubling dilutions in water, in a deep well plate. […] replicate plates were prepared using a Minitrak by aspirating […] from each well into eleven clear polystyrene 96 well plates. Spores of Aspergillus spp. (Aspergillus fumigatus [two strains], Aspergillus terreus [two strains], Aspergillus niger and Aspergillus flavus) were harvested from cultures grown on Sabarauds agar for 5 days, and resuspended in PBS/Tween 80 to approx 1×10^7 cfu/mL. Each organism suspension was diluted in YAG medium (1% glucose, 1% ammonium chloride and 0.5% yeast extract) to 0.5-2×10^4 cfu/mL. 80 μL of an organism suspension was added to each well of the plate containing drug dilutions. This produced MIC plates with a drug range 50-0.05 mg/L and organism inocula of 1−2×10^4 cfu/mL for Aspergillus spp. All plates were incubated for 24 hrs at 35° C. Growth was assessed by monitoring the optical density at 485 nm for each well. The MIC of a compound is the lowest drug concentration that inhibits growth of an organism by >70% compared with a drug free control. MICs are recorded as mg/L. In cases where the MIC of an organism is >=0.05 mg/L the MIC is repeated using a concentration range of 0.5-0.0005 mg/L. Other growth media can be used for susceptibility testing, and the activity of the described compounds was also assessed in RPMI medium containing 2% glucose, and 0.135M MOPS buffer. MIC tests in YAG medium have more clear-cut endpoints and have slightly lower MICs than those performed in RPMI medium. The following organisms were tested: Aspergillus flavus, Aspergillus fumigatus AF293 and AF210, Aspergillus niger and Aspergillus terreus AT4 and AT49.

A further experiment concerns Aspergillus terreus AT4. Put plainly: Measurement of Minimum Inhibitory Concentrations (MICs), A. terreus. Here is the method:
as §1

The test system of experiment [1] is Aspergillus fumigatus AF293. The experiment is described as follows: Measurement of Minimum Inhibitory Concentrations (MICs), A. fumigatus. How it is done:
as §1

In a further experiment the test system is Aspergillus niger. Put plainly: Measurement of Minimum Inhibitory Concentrations (MICs), A. niger. How it is done: as §1
In experiment [2] the test system is Aspergillus fumigatus AF210. Put plainly: Measurement of Minimum Inhibitory Concentrations (MICs), A. fumigatus 210. Here is the method: as §1
In the next experiment the test system is Aspergillus flavus. The experiment is described as follows: Measurement of Minimum Inhibitory Concentrations (MICs), A. flavus. How it is done:
as §1

Setting [3] is: RPMI medium containing 2% glucose, 0.135M MOPS buffer.
Setting [4] is: YAG medium, 24 hrs at 35° C., >70% growth inhibition.

Each structure is given as a SMILES string. Converted amounts (≈) assume the structure as drawn.

As for `Cc1cc(C)nc(N2CCN(c3ccc(NC(=O)C(=O)c4c(-c5ccccc5)cc5n4CCCC5)cc3)CC2)c1` [Example 3, N-{4-[4-(4,6-dimethyl-pyridin-2-yl)-piperazin-1-yl]-phenyl}-2-oxo-2-(2-phenyl-5,6,7,8-tetrahydro-indolizin-3-yl)-acetamide], the minimum inhibitory concentration (MIC) (with Aspergillus terreus AT49 (setting [3]); in the experiment on Aspergillus terreus AT49 (setting [4]); with Aspergillus terreus AT4 (setting [3]); against Aspergillus terreus AT4 (setting [4]); in experiment [1] (setting [3]); in experiment [1] (setting [4])) was < 1 mg/L in each case. The MIC (with Aspergillus niger (setting [3]); in the experiment on Aspergillus niger (setting [4]); in experiment [2] (setting [3]); in experiment [2] (setting [4]); in the experiment on Aspergillus flavus (setting [3]); against Aspergillus flavus (setting [4])) was < 1 mg/L throughout.

On to `C=C(C)CN1CCN(c2ccc(NC(=O)C(=O)c3c(-c4ccccc4)cc4n3CCCC4)cc2)CC1` [Example 1, N-{4-[4(2-methyl-allyl)-piperazin-1-yl]-phenyl}-2-oxo-2-(2-phenyl-5,6,7,8-tetrahydro-indolizin-3-yl)-acetamide], for which the MIC (against Aspergillus terreus AT49 (setting [3]); in the experiment on Aspergillus terreus AT49 (setting [4]); with Aspergillus terreus AT4 (setting [3]); with Aspergillus terreus AT4 (setting [4]); in experiment [1] (setting [3]); in experiment [1] (setting [4])) was < 1 mg/L throughout. Further, the minimal inhibitory concentration (MIC) (against Aspergillus niger (setting [3]); against Aspergillus niger (setting [4]); in experiment [2] (setting [3]); in experiment [2] (setting [4]); in the experiment on Aspergillus flavus (setting [3]); against Aspergillus flavus (setting [4])) was < 1 mg/L throughout.

In the case of `Cc1cc(C)nc(N2CCN(c3ccc(NC(=O)C(=O)c4c(C5CCOCC5)cc5n4CCCC5)cc3)CC2)c1` [Example 10, N-{4-[4-(4,6-Dimethyl-pyridin-2-yl)-piperazin-1-yl]-phenyl}-2-oxo-2-[2-(tetrahydro-pyran-4-yl)-5,6,7,8-tetrahydro-indolizin-3-yl]-acetamide], the MIC (in the experiment on Aspergillus terreus AT49 (setting [3]); with Aspergillus terreus AT49 (setting [4]); in the experiment on Aspergillus terreus AT4 (setting [3]); in the experiment on Aspergillus terreus AT4 (setting [4]); in experiment [1] (setting [3]); in experiment [1] (setting [4])) was < 1 mg/L in each case. Moreover, the minimum inhibitory concentration (MIC) (in the experiment on Aspergillus niger (setting [3]); in the experiment with Aspergillus niger (setting [4]); in experiment [2] (setting [3]); in experiment [2] (setting [4]); in the experiment on Aspergillus flavus (setting [3]); with Aspergillus flavus (setting [4])) was < 1 mg/L throughout.

In the case of `CC(C)(C)CN1CCN(c2ccc(NC(=O)C(=O)c3c(-c4ccccc4)cc4n3CCCC4)cc2)CC1` [Example 2, N-{4-[4-(2,2-dimethyl-propyl)-piperazin-1-yl]-phenyl}-2-oxo-2-(2-phenyl-5,6,7,8-tetrahydro-indolizin-3-yl)-acetamide], the minimum inhibitory concentration (MIC) (with Aspergillus terreus AT49 (setting [3]); against Aspergillus terreus AT49 (setting [4]); against Aspergillus terreus AT4 (setting [3]); in the experiment on Aspergillus terreus AT4 (setting [4]); in experiment [1] (setting [3]); in experiment [1] (setting [4])) was < 1 mg/L in each case. The minimum inhibitory concentration (MIC) (in the experiment on Aspergillus niger (setting [3]); against Aspergillus niger (setting [4]); in experiment [2] (setting [3]); in experiment [2] (setting [4]); in the experiment with Aspergillus flavus (setting [3]); with Aspergillus flavus (setting [4])) was < 1 mg/L each time.

On to `Cc1cc(OCCOc2ccc(NC(=O)C(=O)c3c(-c4ccccc4)cc4n3CCCC4)cc2)cc(C)n1` [Example 14, N-{4-[2-(2,6-Dimethyl-pyridin-4-yloxy)-ethoxy]-phenyl}-2-oxo-2-(2-phenyl-5,6,7,8-tetrahydro-indolizin-3-yl)-acetamide], for which the MIC in the experiment with Aspergillus terreus AT49 (setting [3]) was < 1 mg/L; in the experiment on Aspergillus terreus AT49 (setting [4]) it was < 1 mg/L; against Aspergillus terreus AT4 (setting [3]), < 1 mg/L; against Aspergillus terreus AT4 (setting [4]), 1 to 10 mg/L (≈ 1.96 to 19.6 µM); in experiment [1] (setting [3]), 1 to 10 mg/L (≈ 1.96 to 19.6 µM); in experiment [1] (setting [4]), 1 to 10 mg/L (≈ 1.96 to 19.6 µM). The MIC in the experiment on Aspergillus niger (setting [3]) was 1 to 10 mg/L (≈ 1.96 to 19.6 µM); in the experiment with Aspergillus niger (setting [4]) it was 1 to 10 mg/L (≈ 1.96 to 19.6 µM); in experiment [2] (setting [3]), 1 to 10 mg/L (≈ 1.96 to 19.6 µM); in experiment [2] (setting [4]) it was 1 to 10 mg/L (≈ 1.96 to 19.6 µM); against Aspergillus flavus (setting [3]) it was > 10 mg/L; in the experiment on Aspergillus flavus (setting [4]) it was 1 to 10 mg/L (≈ 1.96 to 19.6 µM).

As for `O=C(Nc1ccc(N2CCN(c3ccc(CN4CCOCC4)cn3)CC2)cc1)C(=O)c1c(-c2ccccc2)cc2n1CCCC2` [Example 18, N-{4-[4-(5-Morpholin-4-ylmethyl-pyridin-2-yl)-piperazin-1-yl]-phenyl}-2-oxo-2-(2-phenyl-5,6,7,8-tetrahydro-indolizin-3-yl)-acetamide], the minimal inhibitory concentration (MIC) (against Aspergillus terreus AT49 (setting [3]); with Aspergillus terreus AT49 (setting [4]); in the experiment on Aspergillus terreus AT4 (setting [3]); in the experiment with Aspergillus terreus AT4 (setting [4]); in experiment [1] (setting [3]); in experiment [1] (setting [4])) was < 1 mg/L throughout. Further, the minimal inhibitory concentration (MIC) (against Aspergillus niger (setting [3]); with Aspergillus niger (setting [4]); in experiment [2] (setting [3]); in experiment [2] (setting [4]); against Aspergillus flavus (setting [3]); in the experiment with Aspergillus flavus (setting [4])) was < 1 mg/L throughout.

Consider `O=C(Nc1ccc2c(c1)OCC2)C(=O)c1c(-c2ccccc2)cc2n1CCCC2` [Example 32, N-(2,3-Dihydro-benzofuran-6-yl)-2-oxo-2-(2-phenyl-5,6,7,8-tetrahydro-indolizin-3-yl)-acetamide], for which the MIC against Aspergillus terreus AT49 (setting [3]) is < 1 mg/L; with Aspergillus terreus AT49 (setting [4]), < 1 mg/L; in the experiment on Aspergillus terreus AT4 (setting [3]), < 1 mg/L; in the experiment with Aspergillus terreus AT4 (setting [4]) it was < 1 mg/L; in experiment [1] (setting [3]) it was 1 to 10 mg/L (≈ 2.59 to 25.9 µM); in experiment [1] (setting [4]), < 1 mg/L. The MIC is < 1 mg/L with Aspergillus niger (setting [3]); < 1 mg/L in the experiment on Aspergillus niger (setting [4]); 1 to 10 mg/L (≈ 2.59 to 25.9 µM) in experiment [2] (setting [3]); < 1 mg/L in experiment [2] (setting [4]); 1 to 10 mg/L (≈ 2.59 to 25.9 µM) in the experiment with Aspergillus flavus (setting [3]); < 1 mg/L in the experiment on Aspergillus flavus (setting [4]).

On to `Cc1cc(C)nc(N2CCN(c3ccc(NC(=O)C(=O)c4c(-c5ccccc5)cc5n4CCCC5)cc3C)CC2)c1` [Example 22, N-{4-[4-(4,6-Dimethyl-pyridin-2-yl)-piperazin-1-yl]-3-methyl-phenyl}-2-oxo-2-(2-phenyl-5,6,7,8-tetrahydro-indolizin-3-yl)-acetamide], for which the minimal inhibitory concentration (MIC) (in the experiment on Aspergillus terreus AT49 (setting [3]); in the experiment with Aspergillus terreus AT49 (setting [4]); in the experiment on Aspergillus terreus AT4 (setting [3]); against Aspergillus terreus AT4 (setting [4]); in experiment [1] (setting [3]); in experiment [1] (setting [4])) was < 1 mg/L in each case. The MIC (in the experiment on Aspergillus niger (setting [3]); in the experiment on Aspergillus niger (setting [4]); in experiment [2] (setting [3]); in experiment [2] (setting [4]); against Aspergillus flavus (setting [3]); in the experiment on Aspergillus flavus (setting [4])) was < 1 mg/L throughout.

Regarding `O=C(Nc1cccc2ccccc12)C(=O)c1c(-c2ccccc2)cc2n1CCCC2` [Example 28, N-Naphthalen-1-yl-2-oxo-2-(2-phenyl-5,6,7,8-tetrahydro-indolizin-3-yl)-acetamide], the MIC in the experiment with Aspergillus terreus AT49 (setting [3]) was < 1 mg/L; against Aspergillus terreus AT49 (setting [4]), < 1 mg/L; with Aspergillus terreus AT4 (setting [3]), < 1 mg/L; against Aspergillus terreus AT4 (setting [4]) it was < 1 mg/L; in experiment [1] (setting [3]), > 10 mg/L; in experiment [1] (setting [4]), < 1 mg/L. Besides, the minimal inhibitory concentration (MIC) against Aspergillus niger (setting [3]) was < 1 mg/L; against Aspergillus niger (setting [4]) it was < 1 mg/L; in experiment [2] (setting [3]) it was > 10 mg/L; in experiment [2] (setting [4]) it was < 1 mg/L; against Aspergillus flavus (setting [3]) it was < 1 mg/L; in the experiment with Aspergillus flavus (setting [4]), < 1 mg/L.

Turning to `Cc1cc(C)nc(N2CCCN(c3ccc(NC(=O)C(=O)c4c(-c5ccccc5)cc5n4CCCC5)cc3)CC2)c1` [Example 5, N-{4-[4-(4,6-dimethyl-pyridin-2-yl)-[1,4]diazepan-1-yl]-phenyl}-2-oxo-2-(2-phenyl-5,6,7,8-tetrahydro-indolizin-3-yl)-acetamide], the MIC (in the experiment on Aspergillus terreus AT49 (setting [3]); against Aspergillus terreus AT49 (setting [4]); in the experiment with Aspergillus terreus AT4 (setting [3]); against Aspergillus terreus AT4 (setting [4]); in experiment [1] (setting [3]); in experiment [1] (setting [4])) was < 1 mg/L each time. For the same compound, the MIC (in the experiment with Aspergillus niger (setting [3]); in the experiment on Aspergillus niger (setting [4]); in experiment [2] (setting [3]); in experiment [2] (setting [4]); against Aspergillus flavus (setting [3]); in the experiment on Aspergillus flavus (setting [4])) was < 1 mg/L throughout.

For `COCc1cc(NC(=O)C(=O)c2c(-c3ccccc3)cc3n2CCCC3)ccc1N1CCN(c2cc(C)cc(C)n2)CC1` [Example 23, N-{4-[4-(4,6-Dimethyl-pyridin-2-yl)-piperazin-1-yl]-3-methoxymethyl-phenyl}-2-oxo-2-(2-phenyl-5,6,7,8-tetrahydro-indolizin-3-yl)-acetamide], the minimum inhibitory concentration (MIC) (with Aspergillus terreus AT49 (setting [3]); in the experiment with Aspergillus terreus AT49 (setting [4]); against Aspergillus terreus AT4 (setting [3]); against Aspergillus terreus AT4 (setting [4]); in experiment [1] (setting [3]); in experiment [1] (setting [4])) was < 1 mg/L each time. For the same compound, the MIC (in the experiment with Aspergillus niger (setting [3]); in the experiment with Aspergillus niger (setting [4]); in experiment [2] (setting [3]); in experiment [2] (setting [4]); in the experiment with Aspergillus flavus (setting [3]); in the experiment on Aspergillus flavus (setting [4])) was < 1 mg/L each time.

The MIC is the lowest concentration found to suppress growth.
